Data on 3 compounds can be found in ChEMBL document CHEMBL3217708, “2-Anilinonicotinyl linked 1,3,4-oxadiazole derivatives: Synthesis, antitumour activity and inhibition of tubulin polymerization” (2011).

In general, inhibition refers to the share of the control response that was lost under treatment. A higher inhibition goes with strong suppression. As usually defined, the GI50 is the concentration at which growth is held to half of that of the control.

In experiment [1] the target is Tubulin (Bos taurus) (UniProt Q6B856+Q862L2+Q862F3). Put plainly: Inhibition of bovine brain tubulin polymerization at 3 uM measured for 1 hr by fluorimetric assay.
In experiment [2] the test system is A549. In words: Cell cycle arrest in human A549 cells assessed as accumulation at G2/M phase at 1 uM after 48 hrs by propidium iodide staining based flow cytometry (reference value: 10%). Format: functional.
For experiment [3], the system named is A549. Put plainly: Inhibition of alpha-tubulin polymerization in human A549 cells assessed as ratio of soluble to polymerized tubulin at 1 uM after 24 hrs by western blot analysis. The format is functional. In general terms: Immunoblotting shows a protein as a band on a membrane.
The test system of experiment [4] is A549. Put plainly: Induction of apoptosis in human A549 cells assessed as caspase-9 activation at 1 uM after 24 hrs by fluorimetry relative to control. Format: functional.
Experiment [5] relates to A549. Put plainly: Induction of apoptosis in human A549 cells assessed as caspase-3 activation at 1 uM after 24 hrs by fluorimetry relative to control. Format: functional.
The subject of experiment [6] is MDA-MB-231. Put plainly: Growth inhibition of human MDA-MB-231 cells after 48 hrs by sulforhodamine B assay. The format is functional. Conditions: MDA-MB-231, 48 h. (In general: In SRB staining, fixed cells bind dye roughly in proportion to their protein.)
The subject of experiment [7] is HepG2. Put plainly: Growth inhibition of human HepG2 cells after 48 hrs by sulforhodamine B assay. Format: functional. Conditions: HepG2, 48 h.
The subject of experiment [8] is A549. Put plainly: Growth inhibition of human A549 cells after 48 hrs by sulforhodamine B assay. Format: functional. Conditions: A549, 48 h.
For experiment [9], the system named is HeLa. In words: Growth inhibition of human HeLa cells after 48 hrs by sulforhodamine B assay. Format: functional.
Experiment [10] relates to DU-145. Put plainly: Growth inhibition of human DU145 cells after 48 hrs by sulforhodamine B assay. Format: functional. Conditions: DU-145, 48 h.
Experiment [11] deals with A549. In words: Cell cycle arrest in human A549 cells assessed as accumulation at G1 phase at 1 uM after 48 hrs by propidium iodide staining based flow cytometry (reference value: 78%). The format is functional.
Experiment [12] has as its system A549. In words: Cell cycle arrest in human A549 cells assessed as accumulation at S phase at 1 uM after 48 hrs by propidium iodide staining based flow cytometry (reference value: 10%). The format is functional.

In the case of `COc1cc(Nc2ncccc2-c2nnc(Nc3ccc(Cl)cc3)o2)cc(OC)c1OC`, the inhibition in experiment [1] is 38%.

As to `COc1cc(Nc2nnc(-c3cccnc3Nc3cc(OC)c(OC)c(OC)c3)o2)cc(OC)c1OC`, in experiment [1], the inhibition worked out at 41%.

Turning to `COC(=O)Nc1nc2cc(C(=O)c3cccs3)ccc2[nH]1` [NOCODAZOLE], the Activity in experiment [2] worked out at 18%; in [11], 55%; in experiment [12], 25%. Also, the Ratio in [3] worked out at 6. Besides, the “fold change (FC)” value in [4] and in experiment [5] was 4 each time. The GI50 worked out at 150 nM in [6]; 760 nM in experiment [7]; 210 nM in experiment [8]; 750 nM in experiment [9]; 190 nM in experiment [10]. The inhibition in experiment [1] stood at 70%.
